# In patent US20150126464A1, “THERAPEUTIC DRUG AND THERAPEUTIC METHOD FOR NEUROLOGICAL DISEASES INCLUDING ALZHEIMER'S DISEASE ASSOCIATED WITH 1,25D3-MARRS” (priority 2013, published 2015):
# Experiments:
# 5XFAD mice [1] = test: Immunohistochemistry of brain slices of 5XFAD mice (amyloid plaques, PHF-tau, abnormal axons, presynapses); assay type: in vivo, mouse; conditions: vs vehicle-treated 5XFAD
# Description: One day after the novel object recognition test, the mice were anesthetized and transcardially perfused with cold physiological saline. The brains were carefully removed from the skull, immediately immersed in 10 to 30% sucrose-PBS and stored at -80° C. The brains were cut in 20-μm successive coronal slices every 100 μm in the parietal area (bregma 1.4-2 mm) sections using a cryostat (C[…], Leica, Heidelberg, Germany). The slices were fixed with 4% paraformaldehyde and stained with a polyclonal antibody against Aβ (1-40/42) (1:300) (Chemicon, Temecula, Calif., USA), a monoclonal antibody against pNF-H (1:500) (Covance, Emeryville, Calif., USA), a monoclonal antibody against synaptophysin (1:500) (Sigma-Aldrich), and a monoclonal antibody against PHF-tau (Thermo Scientific, Rockford, Ill., USA) at 4° C. for 20 hours. […] Three successive brain slices of the frontal cortex and five successive slices of the hippocampus were captured from a mouse for quantification. Extracellular amyloid plaques were determined by the size (greater than 50 μm in width), and the area of amyloid plaques was measured using the image analyzing software ImageJ. The area of the pNF-H-positive abnormal bulb-like axons was measured using ImageJ for every amyloid plaque in the fluorescent images (324 μm×430 μm). The areas of the synaptophysin-positive presynaptic boutons in every amyloid plaque were measured in fluorescent images (324 μm×430 μm) using Image J. The areas of PHF-tau in every amyloid plaque and outer amyloid plaques were measured in fluorescent images (324 μm×430 μm) using ImageJ.
# [2] = tested on: rat cortical neurons (SD E18); test: Measurement of axon density in cortical neurons with or without 1,25D3-MARRS knockdown; conditions: 1 μM, 4 days, vs vehicle
# Description: siRNAs were transfected into rat cortical neurons (SD E18) according to the manufacturer's protocol for nucleofection (Lonza, Bazel, Switzerland). […] Two days after the transfection, the cells were fixed and double-immunostained with a monoclonal antibody against a neuron marker MAP2a/2b (1:500, NeoMarker, Fremont, Calif., USA) and Ab099 clone, a specific antibody for 1,25D3-MARRS (1:500, provided by Dr. Nemere).
# Twelve to fourteen images were captured. The lengths of the pNF-H-positive axons were measured using an image analyzer Neurocyte (Kurabo), which automatically traces and measures neurite length without measuring the cell bodies. The sum of the axon lengths was divided by the number of MAP2-positive neurons.
# 1,25D3-MARRS was knocked down using siRNA transfection. […] Two days after the siRNA transfection, denosomin (1 μM) or a vehicle solution was applied to the cells. Further, after 4-day incubation, the cells were double-immunostained for pNF-H and MAP2 to measure the axonal length per neuron.
# 5XFAD mice [3] = test: Open field locomotion test in 5XFAD mice; assay type: in vivo, mouse; conditions: i.p. 20 days, diosgenin 10 μmol/kg, memantine hydrochloride 200 μmol/kg/day, among the four groups
# Description: Diosgenin was dissolved in dimethyl sulfoxide (DMSO) at 10 times the final concentration to give a stock solution. The stock solution was diluted in physiological saline to the final concentration immediately before treatment. The diosgenin solution was intraperitoneally administered to 5XFAD mice once a day (10 μmol/kg=4.14 mg/kg) for 20 days. On the last day of administration (Day 20), each mouse was housed in a separate open-field box made of polyvinyl chloride (33 cm×[…]; height: 26.5 cm) and habituated to the environment for 10 min.
# For each mouse of Example 1, Comparative Examples 1 and 2, and Reference Example 1, the path during the 10-minute habituation was tracked using a digital camera system. The distance each mouse traveled during the 10 minutes was analyzed as locomotion activity with EthoVision 3.0 (Noldus, Wageningen, The Netherlands). The next day, a novel object recognition test was performed as described in Joyashiki, E. et al., Int J Neurosci, 121, 181-190, 2011 and Tohda, C. et al., Int J Neurosci, 121, 641-648, 2011, written by the inventors and others. Testing was carried out in a dimly illuminated room. […] In the present invention, the ratio (%) of the exploration time for the novel object to the total exploration time was calculated as an exploration preferential index. […]
# 5XFAD mice [4] = test: Novel object recognition test in 5XFAD mice (Alzheimer's disease model); assay type: in vivo, mouse; conditions: i.p. once a day for 20 days, diosgenin 10 μmol/kg, memantine hydrochloride 200 μmol/kg/day, 30 min training-test interval
# Description: Transgenic mice (5XFAD) as an animal model of AD were obtained from the Jackson Laboratory (Bar Harbor, Me., USA). The 5XFAD mice overexpress human APP695 cDNA having Swedish mutation (K670N and M671L), Florida mutation (I716V) and London mutation (V717I) and human PS1 cDNA (M146L and L286V) under the transcriptional control of the neuron-specific mouse Thy-1 promoter (Oakley, H. et al., J Neurosci, 26, 10129-10140, 2006). They were maintained by crossing hemizygous transgenic mice with B6/SJL F1 breeders.
# To investigate the effect of diosgenin on 5XFAD, hemizygous 5XFAD mice (female, 6 to 8 months old) and non-transgenic littermate wild-type mice (female, 6 to 8 months old) were used. These mice were obtained by crossing hemizygous 5XFAD mice and B6/SJL F1 mice. All mice were housed with free access to food and water and were kept in a controlled environment (22±2° C., 50±5% humidity, 12-h light/dark cycle starting at 7:00 am).
# Diosgenin was dissolved in dimethyl sulfoxide (DMSO) at 10 times the final concentration to give a stock solution. The stock solution was diluted in physiological saline to the final concentration immediately before treatment. The diosgenin solution was intraperitoneally administered to 5XFAD mice once a day (10 μmol/kg=4.14 mg/kg) for 20 days. On the last day of administration (Day 20), each mouse was housed in a separate open-field box made of polyvinyl chloride (33 cm×[…]; height: 26.5 cm) and habituated to the environment for 10 min. […]
# For each mouse of Example 1, Comparative Examples 1 and 2, and Reference Example 1, the path during the 10-minute habituation was tracked using a digital camera system. The distance each mouse traveled during the 10 minutes was analyzed as locomotion activity with EthoVision 3.0 (Noldus, Wageningen, The Netherlands). […] In the present invention, the ratio (%) of the exploration time for the novel object to the total exploration time was calculated as an exploration preferential index. […]
# [5] = diosgenin 10 μmol/kg, memantine hydrochloride 200 μmol/kg/day i.p. 20 days
structure (smiles),measurement,setting,value
C[C@@H]1CC[C@@]2(OC1)O[C@H]1C[C@H]3[C@@H]4CC=C5C[C@@H](O)CC[C@]5(C)[C@H]4CC[C@]3(C)[C@H]1[C@@H]2C [diosgenin],area of abnormal presynapses (swollen presynapse area) per amyloid plaque in the cerebral cortex,5XFAD mice [1]; diosgenin 10 μmol/kg i.p. 20 days,significantly reduced
same,area of abnormal axons (swollen axon area) per amyloid plaque in the cerebral cortex,5XFAD mice [1]; [5],significantly reduced
same,area of abnormal axons (swollen axon area) per amyloid plaque in the hippocampus,5XFAD mice [1]; [5],significantly reduced
same,total area of PHF-tau in the cerebral cortex,5XFAD mice [1]; [5],significantly reduced
same,total area of PHF-tau in the hippocampus,5XFAD mice [1]; [5],significantly reduced
same,total area of amyloid plaques in the cerebral cortex,5XFAD mice [1]; [5],significantly reduced
same,total area of amyloid plaques in the hippocampus,5XFAD mice [1]; [5],significantly reduced
same,"density of pNF-H-positive axons per MAP2-positive neuron, control groups","[2]; control (no 1,25D3-MARRS knockdown) cortical neurons",significantly increased
same,"density of pNF-H-positive axons per MAP2-positive neuron, 1,25D3-MARRS knockdown groups","[2]; neurons transfected with siRNA for 1,25D3-MARRS (400 nM)",did not show any difference
same,traveling speed and distance in open field locomotion test,5XFAD mice [3],no significant differences
same,"novel object preferential index (exploration preferential index), test session",5XFAD mice [4],higher than 50%
